# Results: patent US8829196B2, “TRPA1 antagonists” (Merck Sharp & Dohme Corp., priority 2009, dated 2014)
# pIC50: −log10 of the molar value.
# Molecular target: T1, human TRPA1 (Homo sapiens, UniProt O75762, K186N/R3C/R58T)
# T1 construct: host or cells: HEK293 FlpIn
# Test: High Throughput Calcium Imaging Assay (FLIPR, cinnamaldehyde-activated Ca2+ influx)
# Format: cell-based
# Settings: HEK293 FlpIn cells stably expressing human TRPA1; EC60 cinnamaldehyde; Fluo-4AM; read-out: TRPA1 hFLIPR IC50
# Excerpt: The assay was dependent on detecting the change in intracellular Ca2+ concentration following activation of the channel in cells stably expressing the TRPA1 channel. Activation of the TRPA1 channel was followed by Ca2+ influx. Ca2+ increase was quantified through the use of a fluorescent Ca2+ indicator that was loaded into the cells. Compounds which inhibited Ca2+ increase were considered “hits” warranting additional examination.
# The HEK293 FlpIn cell line (Invitrogen) was stably transfected as per the manufacturers guidelines with a construct encoding a human TRPA1 protein with the amino acid sequence depicted in SEQ ID NO: 1. The resulting cell line was maintained in the growth medium recommended by the manufacturer and supplemented with 100 ug/mL Hygromycin B to promote the selection of cells stably expressing the TRPA1 channel. After growing to confluency, cells were plated at a density of 24,000 cells/well in 384 well Black/Clear Microtest plates (Falcon) in the recommended growth medium supplemented with hygromycin, and allowed to grow for 20-24 hours resulting in a ˜90% confluent monolayer of cells. Cells were then loaded with assay buffer containing the Ca2+ dye Fluo-4AM (Invitrogen) to a final concentration of 4 uM, and incubated for 60 minutes at room temperature in the dark. The assay buffer consisted of 138 mM NaCl, 5.33 mM KCl, 1.26 mM CaCl2, 0.49 mM MgCl2, 0.41 mM MgSO4 5.56 mM D-glucose, 0.44 mM KH2PO4, 0.34 mM Na2HPO4, 20 mM HEPES, 2.5 mM Probenecid, and 4% TR-40; pH 7.8. Following 1 hour dye loading, cells were assayed using the FLIPR TETRA (Molecular Devices) which permits excitation of the Fluo-4AM dye, and subsequent recording of emission spectra according to the manufacturer's guidelines. A total of 5 baseline readings were acquired prior to each reagent addition, after which, readings were acquired at a rate of 1 every 3 seconds for 195 seconds, and then 1 every 10 seconds for an additional 420 seconds. During the assay, reagents were added and mixed after each addition by the FLIPR TETRA pippetor. EC60 concentration of Cinnamaldehyde was determined before the screening assay, and used as the activating concentration henceforth. For the screening assay, the baseline reading was taken, followed by addition of 10 uL of a compound stock at six-times the final concentration, followed by 615 seconds of read time as previously described. Following baseline readings, 10 μl, of six-times final concentration Cinnamaldehyde was added to each well, achieving a final concentration of 10 uM compound, and on average, 12 uM Cinnamaldehyde (depending on the EC60 derived during that experiment). Following addition of Cinnamaldehyde, readings were taken for 615 seconds as previously described. Negative controls consisted of HEK293 FlpIn TRPA1 cells exposed to compound vehicle and then Cinnamaldehyde. […] “Hits” were identified as compounds which inhibited the fluorescence response in the presence of Cinnamaldehyde as compared to the negative and positive controls. IC50 values were determined for compounds defined as “hits” which reached fully inhibition. This cell-based fluorescence assay was used to determine Ca2+ influx through the channel in the presence of compound at the following concentrations: 10 uM, 3.33 uM, 1.11 uM, 0.37 uM, 0.12 uM, 0.041 uM, 0.014 uM, 0.0046 uM, 0.0015 uM, and 0.00051 uM.
# T1 sequence (O75762 whole entry R3C/R58T/K186N): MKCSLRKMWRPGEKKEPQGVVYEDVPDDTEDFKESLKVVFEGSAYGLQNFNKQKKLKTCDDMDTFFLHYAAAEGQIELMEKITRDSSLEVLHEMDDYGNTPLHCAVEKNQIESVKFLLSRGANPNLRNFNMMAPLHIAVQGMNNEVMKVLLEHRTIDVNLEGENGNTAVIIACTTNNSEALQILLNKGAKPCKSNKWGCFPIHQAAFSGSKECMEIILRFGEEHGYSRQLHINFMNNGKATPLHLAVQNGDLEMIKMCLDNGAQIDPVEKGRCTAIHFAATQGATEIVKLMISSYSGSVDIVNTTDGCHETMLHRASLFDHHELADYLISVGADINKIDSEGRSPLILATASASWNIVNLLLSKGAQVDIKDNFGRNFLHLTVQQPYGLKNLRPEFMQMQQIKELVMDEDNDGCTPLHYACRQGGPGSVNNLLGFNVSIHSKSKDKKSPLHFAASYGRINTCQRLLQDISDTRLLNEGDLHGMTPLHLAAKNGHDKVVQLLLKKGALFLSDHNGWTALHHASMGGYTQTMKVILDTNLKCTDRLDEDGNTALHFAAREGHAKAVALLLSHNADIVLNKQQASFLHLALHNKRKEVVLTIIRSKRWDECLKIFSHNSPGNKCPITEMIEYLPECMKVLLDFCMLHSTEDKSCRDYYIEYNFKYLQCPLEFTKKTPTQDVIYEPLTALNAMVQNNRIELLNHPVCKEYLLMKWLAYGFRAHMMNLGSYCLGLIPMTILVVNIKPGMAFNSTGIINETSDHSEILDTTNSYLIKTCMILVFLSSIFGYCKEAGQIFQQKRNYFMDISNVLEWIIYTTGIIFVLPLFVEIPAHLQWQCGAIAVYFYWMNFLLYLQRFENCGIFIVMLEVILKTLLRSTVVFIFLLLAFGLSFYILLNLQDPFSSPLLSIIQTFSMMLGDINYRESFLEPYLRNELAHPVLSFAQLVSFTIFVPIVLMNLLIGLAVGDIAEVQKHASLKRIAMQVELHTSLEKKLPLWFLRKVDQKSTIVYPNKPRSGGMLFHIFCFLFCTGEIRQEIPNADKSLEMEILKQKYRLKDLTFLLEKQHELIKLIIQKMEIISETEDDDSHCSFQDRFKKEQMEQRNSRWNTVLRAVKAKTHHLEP
row,Compound,pIC50
1,"O[C@]12CCCO[C@H]1CCC[C@H]2Nc1ccc(F)cc1 [(4aS,5R,8aS)-5-[(4-fluorophenyl)amino]hexahydro-2H-chromen-4a(5H)-ol]",6.28
2,"O[C@@]12CCCO[C@H]1CCC[C@@H]2Nc1ccc(F)cc1 (stereo in doubt) [(4aR,5S,8aS)-5-[(4-fluorophenyl)amino]hexahydro-2H-chromen-4a(5H)-ol]",6.07

# The next molecules have a higher pIC50 than those just listed; values first:
row,pIC50,Compound
1,7.72,"O[C@]12CCCC[C@@H]1CCC[C@H]2Nc1ccc(F)cc1 [(4aR,8aR)-4-[(4-fluorophenyl)amino]octahydronaphthalen-4a(2H)-ol]"
2,7.27,"O[C@]12CCCC[C@@H]1CCC[C@H]2Nc1ccccc1 [(4R,4aR,8aR)-4-(phenylamino)octahydronaphthalen-4a(2H)-ol]"
3,7.46,"COC[C@@H]1CCC(Nc2ccc(F)cc2)C2(O)CCCO[C@H]12 (stereo in doubt) [(4aR,5S)-5-[(4-fluorophenyl)amino]-8-(methoxymethyl)hexahydro-2H-chromen-4a(5H)-ol]"
